# Assay results as given in patent US20250230172A1 (Vanqua Bio, Inc., priority 2021, published 2025).
# Molecular target: T1, GCase (Homo sapiens, UniProt P04062)
# T1 construct: endogenous in cells; host or cells: HeLa cells
# T1 sequence (P04062 40-536): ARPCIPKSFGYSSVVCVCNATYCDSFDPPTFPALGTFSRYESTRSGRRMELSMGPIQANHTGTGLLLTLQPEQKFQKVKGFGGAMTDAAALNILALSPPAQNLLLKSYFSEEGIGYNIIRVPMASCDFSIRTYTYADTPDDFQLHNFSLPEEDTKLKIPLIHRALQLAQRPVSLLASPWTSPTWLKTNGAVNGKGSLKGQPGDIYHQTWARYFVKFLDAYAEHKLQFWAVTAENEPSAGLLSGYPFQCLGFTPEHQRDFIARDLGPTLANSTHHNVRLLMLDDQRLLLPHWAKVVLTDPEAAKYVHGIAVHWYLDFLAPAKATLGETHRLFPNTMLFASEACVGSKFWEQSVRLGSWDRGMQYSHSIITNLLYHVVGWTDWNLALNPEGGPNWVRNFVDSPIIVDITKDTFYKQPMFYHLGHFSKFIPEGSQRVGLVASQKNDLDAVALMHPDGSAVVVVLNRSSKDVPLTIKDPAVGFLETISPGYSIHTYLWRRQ
# Experiment: live cell PFB assay in HELA cells for activation of GCase
# Format: cell-based
# Description: Exemplary compounds were evaluated for activation of GCase in a live cell PFB assay in HELA cells (essentially as described in Ysselstein et al., “LRRK2 kinase activity regulates lysosomal glucocerebrosidase in neurons derived from Parkinson's disease patients” Nature Communications (2019) 10:5570). […] EC50 ranges: A: <10 μM; B: >10-50 μM; C: >50-100 μM; D: >100 μM.
row,SMILES,EC50
1,"FC(F)Cn1ncc2ncc(N[C@H]3C[C@@H]4CN(c5nccnc5C(F)(F)F)C[C@@H]4C3)nc21 [Compound 80, 1-(2,2-difluoroethyl)-N-((3aR,5s,6aS)-2-(3-(trifluoromethyl)pyrazin-2-yl)octahydrocyclopenta[c]pyrrol-5-yl)-1H-pyrazolo[3,4-b]pyrazin-6-amine]",< 10 µM
2,"COc1nccnc1N1C[C@H]2C[C@H](Nc3cnc4cnn(CC(F)F)c4n3)C[C@H]2C1 [Compound 81, 1-(2,2-difluoroethyl)-N-((3aR,5s,6aS)-2-(3-methoxypyrazin-2-yl)octahydrocyclopenta[c]pyrrol-5-yl)-1H-pyrazolo[3,4-b]pyrazin-6-amine]",10 to 50 µM
3,"FC(F)Cn1ncc2ncc(N[C@H]3C[C@@H]4CN(c5ccc(C(F)(F)F)nn5)C[C@@H]4C3)nc21 [Compound 82, 1-(2,2-difluoroethyl)-N-((3aR,5s,6aS)-2-(6-(trifluoromethyl)pyridazin-3-yl)octahydrocyclopenta[c]pyrrol-5-yl)-1H-pyrazolo[3,4-b]pyrazin-6-amine]",10 to 50 µM
4,"FC(F)Cn1ncc2ncc(N[C@H]3C[C@@H]4CN(c5cc(C(F)(F)F)cnn5)C[C@@H]4C3)nc21 [Compound 83, 1-(2,2-difluoroethyl)-N-((3aR,5s,6aS)-2-(5-(trifluoromethyl)pyridazin-3-yl)octahydrocyclopenta[c]pyrrol-5-yl)-1H-pyrazolo[3,4-b]pyrazin-6-amine]",10 to 50 µM
5,"FC(F)Cn1ncc2ncc(N[C@H]3C[C@@H]4CN(c5nnccc5C(F)(F)F)C[C@@H]4C3)nc21 [Compound 84, 1-(2,2-difluoroethyl)-N-((3aR,5s,6aS)-2-(4-(trifluoromethyl)pyridazin-3-yl)octahydrocyclopenta[c]pyrrol-5-yl)-1H-pyrazolo[3,4-b]pyrazin-6-amine]",> 100 µM
6,"FC(F)Cn1ncc2ncc(N[C@H]3C[C@@H]4CN(c5nccc(C(F)(F)F)n5)C[C@@H]4C3)nc21 [Compound 85, 1-(2,2-difluoroethyl)-N-((3aR,5s,6aS)-2-(4-(trifluoromethyl)pyrimidin-2-yl)octahydrocyclopenta[c]pyrrol-5-yl)-1H-pyrazolo[3,4-b]pyrazin-6-amine]",< 10 µM
7,"FC(F)Cn1ncc2ncc(N[C@H]3C[C@@H]4CN(c5ncc(C(F)(F)F)cn5)C[C@@H]4C3)nc21 [Compound 86, 1-(2,2-difluoroethyl)-N-((3aR,5s,6aS)-2-(5-(trifluoromethyl)pyrimidin-2-yl)octahydrocyclopenta[c]pyrrol-5-yl)-1H-pyrazolo[3,4-b]pyrazin-6-amine]",10 to 50 µM
8,"FC(F)Cn1ncc2ncc(N[C@H]3C[C@@H]4CN(c5ccnc(C(F)(F)F)n5)C[C@@H]4C3)nc21 [Compound 87, 1-(2,2-difluoroethyl)-N-((3aR,5s,6aS)-2-(2-(trifluoromethyl)pyrimidin-4-yl)octahydrocyclopenta[c]pyrrol-5-yl)-1H-pyrazolo[3,4-b]pyrazin-6-amine]",< 10 µM
9,"FC(F)Cn1ncc2ncc(N[C@H]3C[C@@H]4CN(c5cnc(C(F)(F)F)nc5)C[C@@H]4C3)nc21 [Compound 88, 1-(2,2-difluoroethyl)-N-((3aR,5s,6aS)-2-(2-(trifluoromethyl)pyrimidin-5-yl)octahydrocyclopenta[c]pyrrol-5-yl)-1H-pyrazolo[3,4-b]pyrazin-6-amine]",< 10 µM
10,"FC(F)Cn1ncc2ncc(N[C@H]3C[C@@H]4CN(c5cncnc5C(F)(F)F)C[C@@H]4C3)nc21 [Compound 89, 1-(2,2-difluoroethyl)-N-((3aR,5s,6aS)-2-(4-(trifluoromethyl)pyrimidin-5-yl)octahydrocyclopenta[c]pyrrol-5-yl)-1H-pyrazolo[3,4-b]pyrazin-6-amine]",< 10 µM
11,"FC(F)Cn1ncc2ncc(N[C@H]3C[C@@H]4CN(c5cc(C(F)(F)F)ncn5)C[C@@H]4C3)nc21 [Compound 90, 1-(2,2-difluoroethyl)-N-((3aR,5s,6aS)-2-(6-(trifluoromethyl)pyrimidin-4-yl)octahydrocyclopenta[c]pyrrol-5-yl)-1H-pyrazolo[3,4-b]pyrazin-6-amine]",< 10 µM
12,"FC(F)Cn1ncc2ncc(N[C@H]3C[C@@H]4CN(c5ncncc5C(F)(F)F)C[C@@H]4C3)nc21 [Compound 91, 1-(2,2-difluoroethyl)-N-((3aR,5s,6aS)-2-(5-(trifluoromethyl)pyrimidin-4-yl)octahydrocyclopenta[c]pyrrol-5-yl)-1H-pyrazolo[3,4-b]pyrazin-6-amine]",< 10 µM
